Reference: publication PMC4199632, “Exploring the Anti-Cancer Activity of Novel Thiosemicarbazones Generated through the Combination of Retro-Fragments: Dissection of Critical Structure-Activity Relationships” (PLoS ONE, 2014)

Experiments:
[1] = system: HCT116 p53+/+ colon cancer cells; assay: Proliferation assay (MTS, 96 h); format: cell-based, human; settings: for IC50: Homo sapiens, HCT-116, 96 h incubation, MTS, mean ±SD (3 experiments); for Therapeutic index NHDF vs. HCT116 p53+/+: NHDF cell IC50 divided by HCT116 p53+/+ IC50
Outline: (§1)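 HCT116 p53+/+, HCT116 p53−/− and NHDF cells were seeded 24 h before a 96 h compound exposure at 37 °C, with final DMSO <0.05%. Viability was read by MTS absorbance at 490 nm after 1 h; IC50 was the concentration reducing absorbance to 50% of untreated control.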

[2] = system: HCT116 p53−/− colon cancer cells; assay: Proliferation assay (MTS, 96 h); format: cell-based, human; settings: for IC50: Homo sapiens, HCT-116, 96 h, 96 h incubation, MTS, mean ±SD (3 experiments); for Therapeutic index NHDF vs. HCT116 p53−/−: NHDF cell IC50 divided by HCT116 p53−/− IC50
Outline: as §1

[3] = system: HeLa cervical carcinoma cells; assay: Proliferation assay (crystal violet, 72 h); format: cell-based; settings: Homo sapiens, 72 h incubation, mean ±SD (3 experiments)
Outline: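 Cells seeded 24 h before treatment, then exposed at 37 °C for 72 h (SK-N-MC, Raji, HeLa) or 96 h (HCT116, NHDF); final DMSO <0.05%. Read-outs: MTT at 570 nm (SK-N-MC, Raji), crystal violet at 595 nm (HeLa), MTS at 490 nm (HCT116, NHDF); IC50 is 50% absorbance versus untreated control, triplicates repeated three times.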

[4] = system: SK-N-MC cells; assay: Inhibition of cellular 59Fe uptake from 59Fe2-Tf; format: cell-based, human; settings: chelator 25 µM; for Internalized 59Fe uptake from 59Fe2-Tf (% of the control): 59Fe2-Tf 0.75 µM, 3 h/37°C
Method: The iron transport protein, Tf (Sigma-Aldrich), was labeled with ^59Fe (PerkinElmer Life and Analytical Sciences, Boston, MA) to form ^59Fe2-Tf using standard methods, [7]. Unbound ^59Fe was removed by passage through a Sephadex G25 column and was followed by exhaustive dialysis, [7].
The ability of the chelators to prevent the cellular uptake of ^59Fe from ^59Fe2-Tf was examined using standard methods, [14], [17], [18], [50]. A monolayer of SK-N-MC cells was incubated with medium containing ^59Fe2-Tf (0.75 µM) and the chelator (25 µM) for 3 h at 37°C. The medium was then removed and the cells were washed four times with ice-cold PBS. The cells were then incubated for 30 min at 4°C with the general protease, Pronase (1 mg/mL; Sigma-Aldrich), to remove membrane-bound ^59Fe. The cells were removed using a plastic spatula and centrifuged at 14,000 rpm/1 min to separate internalized from membrane-bound ^59Fe. The cell pellet was resuspended in 1 mL of PBS and the internalized ^59Fe was measured on a γ-scintillation counter. Internalized ^59Fe uptake was calculated as a percentage of the control (medium alone). Again, the novel ligands were compared to DFO and Dp44mT as their ability to inhibit cellular ^59Fe uptake has been extensively characterized using SK-N-MC cells, [14], [17], [18], [50].
Figure 8 Effect of (A) series 1, (B) series 2, (C) series 3, (D) series 4, (E) series 5 and (F) series 6 chelators, relative to the controls DFO and Dp44mT, on ^59Fe uptake from ^59Fe-transferrin by SK-N-MC cells. Cells were incubated for 3 h/37°C with ^59Fe-transferrin (0.75 µM) in the presence or absence of the chelators (25 µM). At the end of this incubation, cells were washed 4 times with ice-cold PBS. Internalization of ^59Fe was assessed by incubation for 30 min/4°C with the protease, Pronase (1 mg/mL). Cellular ^59Fe was then assessed using a γ-scintillation counter. Results are mean ±SD (3 experiments).

Row | IC50 [1] | IC50 [2] | IC50 [3] | SMILES | Internalized 59Fe uptake from 59Fe2-Tf (% of the control) [4] | Inhibition of 59Fe uptake compared with controls [4] | Therapeutic index NHDF vs. HCT116 p53+/+ [1] | Therapeutic index NHDF vs. HCT116 p53−/− [2]
1 | > 25000 nM | > 25000 nM | 10100 ± 3600 nM | CN(C(=S)N/N=C/c1ccccc1O)C1CCCCC1 [6f] | 3.6–11.5% | – | – | –
2 | 2 ± 1 nM | 5 ± 2 nM | 40 ± 10 nM | CN(C)C(=S)NN=C(c1ccccn1)c1ccccn1 [Dp44mT, di-2-pyridylketone 4,4-dimethyl-3-thiosemicarbazone, reference compound] | 6% | – | 7690 | 3076
3 | 1240 ± 450 nM | 1020 ± 540 nM | 4090 ± 2070 nM | CN(C(=S)N/N=C/c1cnc2ccccc2n1)C1CCCCC1 [5f] | – | comparable inhibition of ^59Fe uptake to that of DFO | – | –

The remaining lines, values behind:

Row | SMILES | IC50 [1] | IC50 [2] | IC50 [3] | Internalized 59Fe uptake from 59Fe2-Tf (% of the control) [4] | Inhibition of 59Fe uptake compared with controls [4] | Therapeutic index NHDF vs. HCT116 p53+/+ [1] | Therapeutic index NHDF vs. HCT116 p53−/− [2]
4 | CCN1CCN(C(=S)N/N=C/c2ccc3ccccc3n2)CC1 [2a] | 1440 ± 690 nM | 3550 ± 1230 nM | 430 ± 160 nM | – | comparable ability to inhibit ^59Fe uptake to the control medium | – | –
5 | S=C(NN=C(c1ccccn1)c1ccccn1)N1CCN(c2cnccn2)CC1 [1e] | 38 ± 3 nM | 31 ± 3 nM | 720 ± 70 nM | – | – | – | –
6 | S=C(N/N=C/c1ccc2ccccc2n1)N1CCN(c2ccccc2)CC1 [2b] | 42 ± 3 nM | 90 ± 40 nM | 200 ± 70 nM | – | comparable inhibition of ^59Fe uptake to that of DFO | 0.8 | 0.4
7 | CN(C(=S)N/N=C/c1ccc2ccccc2n1)C1CCCCC1 [2f] | 26 ± 1 nM | 35 ± 3 nM | 940 ± 450 nM | – | comparable inhibition of ^59Fe uptake to that of DFO | 0.6 | 0.4
8 | CC(=O)N(O)CCCCCNC(=O)CCC(=O)N(O)CCCCCNC(=O)CCC(=O)N(O)CCCCCN [DFO, desferrioxamine, reference compound] | > 25000 nM | > 25000 nM | 14300 ± 960 nM | 83% | – | – | –
